Measurements from ChEMBL document CHEMBL4265935, “Synthesis and evaluation of novel arctigenin derivatives as potential anti-Toxoplasma gondii agents” (Eur J Med Chem, 2018).
The source made the active and inactive calls. The rule behind the calls is not given here.

Key:
Toxoplasma gondii [1] = test: Antiparasitic activity against Toxoplasma gondii RH tachyzoites infected in human HeLa cells assessed as cell survival at 100 uM after 24 hrs by trypan blue assay (reference value: 20.8%); assay type: functional
Toxoplasma gondii [2] = test: Antiparasitic activity against Toxoplasma gondii RH tachyzoites by MTT assay; assay type: functional, organism-based
HeLa = test: Cytotoxicity against human HeLa cells assessed as reduction in cell viability by MTT assay; assay type: cell-based
Toxoplasma gondii [3] = test: Antiparasitic activity against Toxoplasma gondii RH infected in Kunming mouse assessed as increase in GSH level in liver at 100 mg/kg, po qd administered via gavage for 4 consecutive days measured on day 5; assay type: functional, organism-based
Toxoplasma gondii [4] = test: Antiparasitic activity against Toxoplasma gondii RH infected in Kunming mouse assessed as improvement of hepatomegaly at 100 mg/kg, po qd administered via gavage for 4 consecutive days measured on day 5; assay type: functional, organism-based
Toxoplasma gondii [5] = test: Antiparasitic activity against Toxoplasma gondii RH tachyzoites infected in human HeLa cells assessed as increase in cell survival at 100 uM after 24 hrs by trypan blue assay relative to spiramycin; assay type: functional
[6] = Selectivity index, ratio of IC50 for human HeLa cells to ratio of IC50 for Toxoplasma gondii RH tachyzoites; assay type: toxicity; conditions: HeLa cells versus Toxoplasma gondii RH tachyzoites, read-out: Ratio IC50
Toxoplasma gondii [7] = test: Antiparasitic activity against Toxoplasma gondii RH infected in Kunming mouse assessed as reduction in serum ALT level at 100 mg/kg, po qd administered via gavage for 4 consecutive days measured on day 5; assay type: functional, organism-based
Toxoplasma gondii [8] = test: Antiparasitic activity against Toxoplasma gondii RH infected in Kunming mouse assessed as reduction in serum AST level at 100 mg/kg, po qd administered via gavage for 4 consecutive days measured on day 5; assay type: functional, organism-based
Toxoplasma gondii [9] = test: Antiparasitic activity against Toxoplasma gondii RH infected in Kunming mouse assessed as inhibition of number of intraperitoneal tachyzoite in abdominal cavity at 100 mg/kg, po qd administered via gavage for 4 consecutive days measured on day 5 by light microscopic analysis relative to control; assay type: functional; conditions: 120 h
Toxoplasma gondii [10] = test: Antiparasitic activity against Toxoplasma gondii RH infected in Kunming mouse assessed as increase in survival rate by measuring mortality day at 100 mg/kg, po qd administered via gavage for several consecutive days measured on day 12 (reference value: 9 to 11 days); assay type: functional
Toxoplasma gondii [11] = test: Antiparasitic activity against Toxoplasma gondii RH infected in Kunming mouse assessed as increase in survival rate by measuring mortality day at 100 mg/kg, po qd administered via gavage for several consecutive days measured on day 10 (reference value: 9 to 11 days); assay type: functional
Toxoplasma gondii [12] = test: Antiparasitic activity against Toxoplasma gondii RH infected in Kunming mouse assessed as increase in body weight at 100 mg/kg, po qd administered via gavage for several consecutive days; assay type: functional, organism-based
Toxoplasma gondii [13] = test: Antiparasitic activity against Toxoplasma gondii RH infected in Kunming mouse assessed as survival rate at 100 mg/kg, po qd administered via gavage for several consecutive days measured on day 20 relative to control; assay type: functional; conditions: 480 h
Toxoplasma gondii [14] = test: Antiparasitic activity against Toxoplasma gondii RH infected in Kunming mouse assessed as improvement of splenomegaly at 100 mg/kg, po qd administered via gavage for 4 consecutive days measured on day 5; assay type: functional, organism-based
Toxoplasma gondii [15] = test: Antiparasitic activity against Toxoplasma gondii RH infected in Kunming mouse assessed as decrease in GSH level in liver at 100 mg/kg, po qd administered via gavage for 4 consecutive days measured on day 5; assay type: functional, organism-based
Toxoplasma gondii [16] = test: Antiparasitic activity against Toxoplasma gondii RH infected in Kunming mouse assessed as inhibition of number of intraperitoneal tachyzoite in abdominal cavity at 200 mg/kg, po qd administered via gavage for 4 consecutive days measured on day 5 by light microscopic analysis relative to control; assay type: functional
Toxoplasma gondii [17] = test: Antiparasitic activity against Toxoplasma gondii RH tachyzoites infected in human HeLa cells assessed as decrease in number of cell death at 100 uM after 24 hrs by inverted optical microscopic analysis; assay type: functional, organism-based
Toxoplasma gondii [18] = test: Antiparasitic activity against Toxoplasma gondii RH tachyzoites infected in human HeLa cells assessed as decrease in cell shrinkage at 100 uM after 24 hrs by inverted optical microscopic analysis; assay type: functional, organism-based

Row | SMILES | IC50 (Toxoplasma gondii [2]) [µM] | IC50 (HeLa) [µM] | selectivity ratio [6] | further results
1 | COc1ccc(C[C@H]2COC(=O)[C@@H]2Cc2ccc(OCC(=O)Nc3ccccc3)c(OC)c2)cc1OC | 40.6 | ≥ 600 | > 14.8 | survival at 100 µM (Toxoplasma gondii [1]): 69.7%; Activity (Toxoplasma gondii [3]): Active; Activity (Toxoplasma gondii [4]): Active; Activity (Toxoplasma gondii [5]): 29.7%; Activity (Toxoplasma gondii [7]): inactive; Activity (Toxoplasma gondii [8]): Active; inhibition in vivo at 100 mg/kg (Toxoplasma gondii [9]): 82%; mortality (Toxoplasma gondii [10]): 12 days
2 | COC(=O)[C@@H]1CCCN1C(=O)CCC(=O)Oc1ccc(C[C@H]2C(=O)OC[C@@H]2Cc2ccc(OC)c(OC)c2)cc1OC | 43.9 | 145 | 3.31 | –
3 | COc1ccc(C[C@H]2COC(=O)[C@@H]2Cc2ccc(OCC(=O)N3CCCC3)c(OC)c2)cc1OC | 336 | ≥ 600 | > 1.78 | –
4 | COc1ccc(C[C@H]2COC(=O)[C@@H]2Cc2ccc(OCC(=O)N3CCCCC3)c(OC)c2)cc1OC | 313 | 293 | 0.94 | –
5 | COC(=O)[C@@H](Cc1ccccc1)NC(=O)CCC(=O)Oc1ccc(C[C@H]2C(=O)OC[C@@H]2Cc2ccc(OC)c(OC)c2)cc1OC | 226 | 357 | 1.58 | –
6 | COc1ccc(C[C@H]2COC(=O)[C@@H]2Cc2ccc(OC(=O)CCC(=O)N3CCCC3)c(OC)c2)cc1OC | 115 | 201 | 1.74 | –
7 | COc1ccc(C[C@H]2COC(=O)[C@@H]2Cc2ccc(OCC(=O)N3CCOCC3)c(OC)c2)cc1OC | ≥ 600 | ≥ 600 | – | –
8 | COC(=O)CC[C@H](NC(=O)CCC(=O)Oc1ccc(C[C@H]2C(=O)OC[C@@H]2Cc2ccc(OC)c(OC)c2)cc1OC)C(=O)OC | 157 | 95.7 | 0.61 | –
9 | COc1ccc(C[C@H]2COC(=O)[C@@H]2Cc2ccc(OCC(=O)Nc3ccc(C)cc3)c(OC)c2)cc1OC | 322 | 228 | 0.71 | –
10 | COC(=O)[C@H](CCSC)NC(=O)CCC(=O)Oc1ccc(C[C@H]2C(=O)OC[C@@H]2Cc2ccc(OC)c(OC)c2)cc1OC | 165 | 199 | 1.2 | –
11 | COc1ccc(C[C@H]2COC(=O)[C@@H]2Cc2ccc(OCc3cn(Cc4ccc(F)cc4)nn3)c(OC)c2)cc1OC | ≥ 600 | 198 | < 0.33 | –
12 | COC(=O)[C@@H](NC(=O)CCC(=O)Oc1ccc(C[C@H]2C(=O)OC[C@@H]2Cc2ccc(OC)c(OC)c2)cc1OC)C(C)C | 32.7 | 64 | 1.96 | –
13 | COC(=O)[C@H](CC(C)C)NC(=O)CCC(=O)Oc1ccc(C[C@H]2C(=O)OC[C@@H]2Cc2ccc(OC)c(OC)c2)cc1OC | 62.5 | 53.2 | 0.85 | –
14 | COc1ccc(C[C@H]2COC(=O)[C@@H]2Cc2ccc(OCc3cn(Cc4ccccc4F)nn3)c(OC)c2)cc1OC | 17.1 | ≥ 600 | > 35.1 | mortality (Toxoplasma gondii [11]): 10 days; survival at 100 µM (Toxoplasma gondii [1]): 68.4%; Activity (Toxoplasma gondii [12]): Active; Activity (Toxoplasma gondii [3]): Active; Activity (Toxoplasma gondii [4]): Active; survival at 100 mg/kg (Toxoplasma gondii [13]): 16%; Activity (Toxoplasma gondii [5]): 28.4%; Activity (Toxoplasma gondii [14]): Active; Activity (Toxoplasma gondii [7]): inactive; Activity (Toxoplasma gondii [8]): Active; Activity (Toxoplasma gondii [15]): Active; inhibition in vivo at 100 mg/kg (Toxoplasma gondii [9]): 66.9%
15 | COc1cc(C[C@H]2C(=O)OC[C@@H]2Cc2ccc(OC)c(OC)c2)ccc1O [ARCTIGENIN] | 586 | 573 | 0.98 | mortality (Toxoplasma gondii [11]): 10 days; inhibition (Toxoplasma gondii [16]): Active; Activity (Toxoplasma gondii [12]): Active; Activity (Toxoplasma gondii [4]): Active; survival at 100 mg/kg (Toxoplasma gondii [13]): 16%; Activity (Toxoplasma gondii [5]): 18.4%; Activity (Toxoplasma gondii [7]): inactive; Activity (Toxoplasma gondii [8]): Active; Activity (Toxoplasma gondii [17]): Active; Activity (Toxoplasma gondii [15]): Active; inhibition in vivo at 100 mg/kg (Toxoplasma gondii [9]): 75.9%; Activity (Toxoplasma gondii [18]): Active
16 | COc1ccc(C[C@H]2COC(=O)[C@@H]2Cc2ccc(OCc3cn(-c4ccc(C)cc4)nn3)c(OC)c2)cc1OC | 366 | ≥ 600 | > 1.64 | –

Row | SMILES | IC50 (Toxoplasma gondii [2]) [µM] | IC50 (HeLa) [µM] | selectivity ratio [6] | further results
17 | COc1ccc(C[C@H]2COC(=O)[C@@H]2Cc2ccc(OCc3cn(-c4ccc(Br)cc4)nn3)c(OC)c2)cc1OC | 429 | 128 | 0.3 | –
18 | COc1ccc(C[C@H]2COC(=O)[C@@H]2Cc2ccc(OCc3cn(Cc4ccccc4)nn3)c(OC)c2)cc1OC | 651 | 346 | 0.53 | –
19 | COc1ccc(C[C@H]2COC(=O)[C@@H]2Cc2ccc(OCc3cn(Cc4ccc(Cl)cc4)nn3)c(OC)c2)cc1OC | 251 | 242 | 0.97 | –
20 | COc1ccc(C[C@H]2COC(=O)[C@@H]2Cc2ccc(OC(=O)CCC(=O)N3CCCCC3)c(OC)c2)cc1OC | 41 | 128 | 3.12 | –
21 | COc1ccc(C[C@H]2COC(=O)[C@@H]2Cc2ccc(OCc3cn(Cc4ccccc4Cl)nn3)c(OC)c2)cc1OC | 24.3 | 84.5 | 3.48 | –
22 | COC(=O)[C@@H](NC(=O)CCC(=O)Oc1ccc(C[C@H]2C(=O)OC[C@@H]2Cc2ccc(OC)c(OC)c2)cc1OC)c1ccccc1 | 84.4 | 78.1 | 0.92 | –
23 | COC(=O)CNC(=O)CCC(=O)Oc1ccc(C[C@H]2C(=O)OC[C@@H]2Cc2ccc(OC)c(OC)c2)cc1OC | 157 | 179 | 1.14 | –
24 | CCN(CC)C(=O)CCC(=O)Oc1ccc(C[C@H]2C(=O)OC[C@@H]2Cc2ccc(OC)c(OC)c2)cc1OC | 206 | 213 | 1.04 | –
25 | CCN(CC)C(=O)COc1ccc(C[C@H]2C(=O)OC[C@@H]2Cc2ccc(OC)c(OC)c2)cc1OC | 388 | 188 | 0.48 | –
26 | COc1ccc(C[C@H]2COC(=O)[C@@H]2Cc2ccc(OCc3cn(-c4cccc(Cl)c4)nn3)c(OC)c2)cc1OC | 269 | 493 | 1.83 | –
27 | COC(=O)[C@H](Cc1ccccc1)NC(=O)CCC(=O)Oc1ccc(C[C@H]2C(=O)OC[C@@H]2Cc2ccc(OC)c(OC)c2)cc1OC | ≥ 600 | ≥ 600 | – | –
28 | COc1ccc(-n2cc(COc3ccc(C[C@H]4C(=O)OC[C@@H]4Cc4ccc(OC)c(OC)c4)cc3OC)nn2)cc1 | ≥ 600 | ≥ 600 | – | –
29 | COc1ccc(C[C@H]2COC(=O)[C@@H]2Cc2ccc(OCc3cn(-c4ccc(Cl)cc4)nn3)c(OC)c2)cc1OC | 278 | 279 | 1 | –
30 | COc1ccc(C[C@H]2COC(=O)[C@@H]2Cc2ccc(OCc3cn(-c4ccc(F)cc4)nn3)c(OC)c2)cc1OC | ≥ 600 | ≥ 600 | – | –
31 | COc1ccc(C[C@H]2COC(=O)[C@@H]2Cc2ccc(OCc3cn(-c4ccccc4)nn3)c(OC)c2)cc1OC | 136 | 124 | 0.92 | –
32 | CCN1CCN(C(=O)CCC(=O)Oc2ccc(C[C@H]3C(=O)OC[C@@H]3Cc3ccc(OC)c(OC)c3)cc2OC)CC1 | 94.4 | 190 | 2.01 | –
